Data taken from patent US20250154143A1, “PRODRUGS FOR USE IN THE TREATMENT OF TISSUE DAMAGE” (UCL BUSINESS LTD, priority 2021, published 2025).
In brackets after ≈: the same amount, converted by molar mass. Where a name gives a salt, the structure may show the parent alone.

Assays:
[1] = Thermodynamic solubility in PBS, FaSSIF and SGF; assay type: physicochemical; conditions: thermodynamic from solid, room temperature
Experimental: A known quantity of the Examples and control compounds were weighed into a suitable vessel (whatman miniuniprep vials) and a known volume of the required media was added (e.g. Simulated Gastric Fluid pH 1.2 [SGF], Simulated Fasted State Intestinal Fluid pH 6.5 [FaSSIF] or Phosphate Buffered Saline pH 7.4 [PBS]). The samples were subjected to vortex mixing for 2 minutes followed by agitation on a shaker for 24 hours at room temperature at 800 rpm. The samples were then centrifuged for 20 minutes at 4000 rpm, the miniuniprep vials compressed and the filtrates analysed by HPLC (Waters Xbridge C18 4.6×100 mm, mobile phase A: 0.1% TFA in water, mobile phase B: 0.1% TFA in acetonitrile).

[2] = Stability in FaSSIF, SGF and PBS; assay type: physicochemical; conditions: 37° C.
Experimental: 10 μL of a 10 mM stock solution of the Examples were dissolved in 490 μL DMSO to afford […] working solution
Dissolve 0.04 g NaCl and 0.064 g pepsin in 0.14 mL HCl and add sufficient water to 20 mL volume. The pH of the test solution was 1.20±0.05.
0.056% (w/v) lecithin, 0.161% (w/v) sodium taurocholate, 0.39% (w/v) monobasic potassium phosphate, 0.77% (w/v) potassium chloride, deionized H2O. The pH of the test solution was 6.5±0.05.
30 mL of 10×PBS (pH7.4) was added into a 50 mL flask and diluted with water. The solution was mixed well and adjusted to pH 7.4 with 1N HCl.
Protocol for Determining Stability 2 μL of the 200 μL working solution of the Examples was added into 96-deep-well plates for T0, T60, T120, T360 and T1440 timepoints. Duplicates were prepared.
Stability studies were commenced by the addition of 198 μL of the required media (e.g. Simulated Gastric Fluid pH 1.2 [SGF], Simulated Fasted State Intestinal Fluid pH 6.5 [FaSSIF]) and Phosphate Buffered Saline pH 7.4 [PBS]) to each well except T0. The samples were incubated at 37° C. at 600 rpm for the appointed time. The samples at the corresponding timepoint were removed and immediately mixed with 400 μL of 0.3% FA in MeCN containing 200 ng/mL tolbutamide and labetalol (internal standard). 200 μL of suspension was removed and mixed with 400 μL of 0.3% FA in cold MeCN containing 200 ng/mL tolbutamide and labetalol. The samples were centrifuged at 4000 rpm at 4° C. for 20 minutes. 60 μL of the supernatant was removed and mixed with 180 μL purified water and thoroughly mixed and analysed by LCMS (Shimadzu LC 30-AD, ACQUITY UPLC HSS T3 1.8 um 2.1*50 mm Part No. 186003538, with mobile phase A: 0.1% formic acid in water, mobile phase B: 0.1% formic acid in MeCN. Formation of parent was also monitored as a metabolite.
Samples were analysed by Mass Spectrometry QTRAP 6500+

human CRP = target: T1, human CRP (Homo sapiens, UniProt P02741); conditions: rat acute myocardial infarction model, rats receiving human CRP; cited from earlier work
T1 construct: The final concentrations were 0.73 μM native pentameric CRP; from tissue
T1 sequence (P02741 19-224): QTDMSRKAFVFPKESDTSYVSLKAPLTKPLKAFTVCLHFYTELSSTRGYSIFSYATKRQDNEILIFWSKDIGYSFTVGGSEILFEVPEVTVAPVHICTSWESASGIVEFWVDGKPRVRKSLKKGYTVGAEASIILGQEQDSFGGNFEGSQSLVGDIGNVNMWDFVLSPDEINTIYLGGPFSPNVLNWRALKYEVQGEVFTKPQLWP

[3] = Phosphate Buffered Saline (PBS), aqueous buffer, PBS pH 7.4, 24 hour timepoint
[4] = Simulated Fasted State Intestinal Fluid (FaSSIF), FaSSIF pH 6.5, 24 hour timepoint
[5] = Simulated Gastric Fluid (SGF), simulated gastric fluid, SGF pH 1.2, 24 hour timepoint

CC(C)OC(=O)[C@H](NC(=O)c1ccc(C(=O)N[C@@H](C(=O)OC(C)C)C2CN3CCC2CC3)cc1)C1CN2CCC1CC2 (stereo partly drawn) [Example 13, (R,2R,2′R)-2,2′-(terephthaloylbis(azanediyl))bis(2-((R)-quinuclidin-3-yl)acetic acid) bis isopropyl ester]
solubility thermodynamic at 24 h [1, 3]: 4560 µg/mL (≈ 7.83 mM) | solubility thermodynamic at 24 h [1, 4]: 5200 µg/mL (≈ 8.93 mM) | solubility thermodynamic at 24 h [1, 5]: 5140 µg/mL (≈ 8.82 mM) | FaSSIF (pH 6.5) % remaining ([2]; FaSSIF pH 6.5, 6 hr): 99.7% | FaSSIF (pH 6.5) % remaining ([2]; FaSSIF pH 6.5, 24 h): 110.4% | PBS (pH 7.4) % remaining ([2]; PBS pH 7.4, 6 h): 103.43% | PBS (pH 7.4) % remaining ([2]; PBS pH 7.4, 24 h): 104.61% | SGF (pH 1.2) % remaining ([2]; SGF pH 1.2, 6 h): 107.2% | SGF (pH 1.2) % remaining ([2]; SGF pH 1.2, 24 h): 100.0%

O=C(N[C@@H](C(=O)O)C1CN2CCC1CC2)c1ccc(C(=O)N[C@@H](C(=O)O)C2CN3CCC2CC3)cc1 (stereo partly drawn) [APL-2191.2HCl, (R,2R,2′R)-2,2′-(terephthaloylbis(azanediyl))bis(2-((R)-quinuclidin-3-yl)acetic acid) bis hydrochloride salt]
solubility thermodynamic at 24 h [1, 3]: 1690 µg/mL | solubility thermodynamic at 24 h [1, 4]: 2510 µg/mL | solubility thermodynamic at 24 h [1, 5]: 4560 µg/mL

C[N+](C)(C)CCOP(=O)([O-])OCCCCCCOP(=O)([O-])OCC[N+](C)(C)C [BPC6, bis(phosphocholine)hexane]
Effect on adverse effects of human CRP (human CRP): completely abrogate the adverse effects of human CRP

CCOC(=O)[C@H](NC(=O)c1ccc(C(=O)N[C@@H](C(=O)OCC)C2CN3CCC2CC3)cc1)C1CN2CCC1CC2 (stereo partly drawn) [Example 12, (R,2R,2′R)-2,2′-(terephthaloylbis(azanediyl))bis(2-((R)-quinuclidin-3-yl)acetic acid) bis ethyl ester]
solubility thermodynamic at 24 h [1, 3]: 5520 µg/mL (≈ 9.94 mM) | solubility thermodynamic at 24 h [1, 4]: 4540 µg/mL (≈ 8.18 mM) | solubility thermodynamic at 24 h [1, 5]: 4000 µg/mL (≈ 7.22 mM) | FaSSIF (pH 6.5) % remaining ([2]; FaSSIF pH 6.5, 6 hr): 105.0% | FaSSIF (pH 6.5) % remaining ([2]; FaSSIF pH 6.5, 24 h): 95.2% | PBS (pH 7.4) % remaining ([2]; PBS pH 7.4, 6 h): 84.33% | PBS (pH 7.4) % remaining ([2]; PBS pH 7.4, 24 h): 87.14% | SGF (pH 1.2) % remaining ([2]; SGF pH 1.2, 6 h): 101.2% | SGF (pH 1.2) % remaining ([2]; SGF pH 1.2, 24 h): 92.3%

C[N+](C)(C)CCOP(=O)(O)OCCCCCCCCOP(=O)(O)OCC[N+](C)(C)C [BPC8, bis(phosphocholine)octane]
Effect on adverse effects of human CRP (human CRP): completely abrogate the adverse effects of human CRP

COC(=O)[C@H](NC(=O)c1ccc(C(=O)N[C@@H](C(=O)OC)C2CN3CCC2CC3)cc1)C1CN2CCC1CC2 (stereo partly drawn) [Example 1, (R,2R,2′R)-2,2′-(terephthaloylbis(azanediyl))bis(2-((R)-quinuclidin-3-yl)acetic acid) bis methyl ester]
solubility thermodynamic at 24 h [1, 3]: 1220 µg/mL (≈ 2.31 mM) | solubility thermodynamic at 24 h [1, 4]: 4690 µg/mL (≈ 8.9 mM) | solubility thermodynamic at 24 h [1, 5]: 5930 µg/mL (≈ 11.3 mM) | FaSSIF (pH 6.5) % remaining ([2]; FaSSIF pH 6.5, 6 hr): 98.3% | FaSSIF (pH 6.5) % remaining ([2]; FaSSIF pH 6.5, 24 h): 113.3% | PBS (pH 7.4) % remaining ([2]; PBS pH 7.4, 6 h): 84.07% | PBS (pH 7.4) % remaining ([2]; PBS pH 7.4, 24 h): 55.89% | SGF (pH 1.2) % remaining ([2]; SGF pH 1.2, 6 h): 101.2% | SGF (pH 1.2) % remaining ([2]; SGF pH 1.2, 24 h): 92.6%
